Data reported in article PMC10611828 (European Journal of Nuclear Medicine and Molecular Imaging, 2023).

How the values were obtained:
[1] = design: method as in PMID 35027371, PMID 28644732; conditions: compared with RM2; cited from earlier work
[2] = Stability in PBS at 37 °C (radio-HPLC); assay type: physicochemical
Procedure: (§1) The ^177Lu-labeled peptides were incubated in 300-μL phosphate buffered saline (PBS; Gibco, ThermoFisher, The Netherlands) at 37 °C, and their stability was verified after 1, 4, 24, 48, and 72 h by radio-HPLC (Supplementary Fig. 2). The stability in serum was determined by incubating the radiolabeled compounds into 300 μL of mouse serum (Invitrogen, USA) or human serum (Sigma Aldrich, USA) at 37 °C (Supplementary Fig. 3, 4). At each time point post-incubation, 35 μL of the mixture was added to an Eppendorf tube, and the proteins were precipitated by adding an equal volume of acetonitrile. The tubes were centrifuged at 16,000 rpm, 4 °C for 20 min, and the stability was monitored by radio-HPLC, expressed as the RCP at the different time points.

[3] = Stability in mouse serum at 37 °C (radio-HPLC); assay type: in vitro ADME; conditions: 0 h
Procedure: as §1

[4] = Stability in human serum at 37 °C (radio-HPLC); assay type: in vitro ADME; conditions: 0 h
Procedure: as §1

PC-3 cells = assay: Uptake and specificity in PC-3 cells; assay type: cell-based, human; conditions: 1 h 37 °C
Procedure: PC-3 cells were seeded at 2.5 × 10^5 cells/well into 12 well plates 18–24 h prior to the experiment. […] Hereafter, cells were washed twice with PBS and subsequently lysed with 0.1 M NaOH for 20 min at room temperature (RT). The cell lysates were collected and measured using a gamma counter (1480 WIZARD automatic γ-counter, PerkinElmer, The Netherlands). […] Hereafter, cells were washed twice with cold PBS and lysed with 0.1 M NaOH for 20 min at RT. The cell lysates were collected and measured to determine the amount of radioactivity in a gamma counter. To correct for cell density, cells from two separate wells were counted (Countess counter, Invitrogen, The Netherlands), and data was expressed as percentage of added dose (AD) per 2.5 × 10^5 cells.

[5] = design: method as in PMID 31482426; conditions: all patients; cited from earlier work

| intact radiolabeled ligand (RCP) ([2]; 0 h) [%] | intact radiolabeled ligand (RCP) ([2]; 1 h) [%] | intact radiolabeled ligand (RCP) ([2]; 4 h) [%] | intact radiolabeled ligand (RCP) ([2]; 24 h) [%] | intact radiolabeled ligand (RCP) ([2]; 48 h) [%] | intact radiolabeled ligand (RCP) ([2]; 72 h) [%] | intact radiolabeled ligand (RCP) [3] [%] | intact radiolabeled ligand (RCP) [4] [%] | Compound | lipophilicity (structure and LogD) [1] | uptake in the presence of Tyr^4-BBN (PC-3 cells; 10^-9 M + 10^-6 M Tyr^4-BBN) [% AD] | uptake (PC-3 cells; 10^-9 M, per 2.5 × 10^5 cells) [% AD] | tolerability in patients [5] |
| --- | --- | --- | --- | --- | --- | --- | --- | --- | --- | --- | --- | --- |
| – | – | – | – | – | – | – | – | CC(C)CC(CC(C)C)NC(=O)[C@H](Cc1cnc[nH]1)NC(=O)CNC(=O)[C@@H](NC(=O)[C@H](C)NC(=O)[C@H](Cc1c[nH]c2ccccc12)NC(=O)[C@H](CCC(N)=O)NC(=O)[C@@H](Cc1ccccc1)NC(=O)COCC(=O)Nc1ccc(CNC(=O)CN2CCN(CC(=O)O)CCN(CC(=O)O)CCN(CC(=O)O)CC2)cc1)C(C)C [NeoB, DOTA-pADA-D-Phe-Gln-Trp-Ala-Val-Gly-His-NH-CH[CH2-CH(CH3)2]2] | more lipophilic | – | – | – |
| 97.4 ± 0.3 | 97.8 ± 0.4 | 96.7 ± 0.5 | 95.6 ± 0.3 | 87.6 ± 0.6 | 80.4 ± 0.8 | 97.4 ± 0.3 | 97.4 ± 0.3 | CC(C)C[C@H](NC(=O)C[C@H](O)[C@H](CC(C)C)NC(=O)[C@H](Cc1c[nH]cn1)NC(=O)CNC(=O)[C@@H](NC(=O)[C@H](C)NC(=O)[C@H](Cc1c[nH]c2ccccc12)NC(=O)[C@H](CCC(N)=O)NC(=O)[C@@H](Cc1ccccc1)NC(=O)CN1CCC(NC(=O)CN2CCN(CC(=O)O)CCN(CC(=O)O)CCN(CC(=O)O)CC2)CC1)C(C)C)C(N)=O [[^177Lu]Lu-RM2] [metal not drawn] | – | < 1 | 10.96 ± 3.46 | well tolerated |
